Laboratory results taken from patent US20230159496A1, “COMPOUNDS AND METHODS FOR MODULATING SPLICING” (REMIX THERAPEUTICS INC., priority 2020, published 2023).
Like-named read-outs stand apart in the source and are kept apart here.

What was measured:
Assay type in all cases: cell-based
HTT CJ mRNA = assay: Gene panel canonical junction qPCR assay, HTT; details: decrease in CJ mRNA levels, gene panel; read-out: HTT IC50
Procedure, shortened: (§1)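 A673 or K562 cells were treated for 24 h at 37 °C with an 11-point 3-fold dilution, top dose 10 uM, DMSO ≤0.25%. Canonical junction mRNA in lysates was quantified by one-step RT-qPCR and normalized to GAPDH, GUSB or PPIA.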

Target C CJ mRNA = assay: Gene panel canonical junction qPCR assay, Target C; details: decrease in CJ mRNA levels, gene panel; read-out: Target C IC50
Procedure, shortened: as §1

SMN2 CJ mRNA = assay: Gene panel canonical junction qPCR assay, SMN2; details: decrease in CJ mRNA levels, gene panel; read-out: SMN2 IC50
Procedure, shortened: as §1

HTT mRNA = assay: Splicing assay (RT-qPCR) monitoring HTT canonical junction (CJ) and alternative junction (AJ) mRNA isoforms; details: A673 or K562 cells, 24 h treatment, top dose 10 uM
Procedure, shortened: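 A673 or K562 cells treated 24 h at 37 °C with an 11-point 3-fold dilution (top 10 uM final, DMSO ≤0.25%). Lysates assayed by one-step RT-qPCR for HTT CJ and AJ isoforms, normalized to GAPDH, GUSB (K562) or PPIA (A673).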

[1] = decrease in CJ mRNA (50% response), read-out: HTT CJ AC50
[2] = increase in AJ mRNA (50% response), read-out: HTT AJ AC50

Structure (SMILES)	IC50 (HTT CJ mRNA) [nM]	IC50 (Target C CJ mRNA) [nM]	IC50 (SMN2 CJ mRNA) [nM]	AC50 (HTT mRNA; [1]) [nM]	AC50 (HTT mRNA; [2]) [nM]
Cc1cn2cc(-c3ccc4c(c3)CCN(C3CCNCC3)C4=O)nc2c(C)n1 [Compound 221]	> 10000	> 10000	100 to 1000	> 10000	> 10000
Cc1cn2cc(-c3ccc4c(c3)CCN(C3CCNCC3)C4=O)c(C)cc2n1 [Compound 218]	1000 to 10000	1000 to 10000	1000 to 10000	1000 to 10000	1000 to 10000
Cc1cn2cc(-c3ccc4c(=O)n(C5CCNCC5)cnc4c3)nc2c(C)n1 [Compound 286]	1000 to 10000	1000 to 10000	100 to 1000	1000 to 10000	1000 to 10000
Cc1cn2cc(-c3ccc4c(c3)CCN(C3CCNCC3)C4=O)ncc2n1 [Compound 224]	> 10000	> 10000	100 to 1000	> 10000	> 10000
Cc1cn2cc(-c3ccc4c(=O)n(C5CCN(C)CC5)cnc4c3F)cc(F)c2n1 [Compound 227, 8-fluoro-7-(8-fluoro-2-methylimidazo[1,2-a]pyridin-6-yl)-3-(1-methylpiperidin-4-yl)quinazolin-4(3H)-one]	1000 to 10000	> 10000	100 to 1000	1000 to 10000	1000 to 10000
Cc1cn2nc(-c3ccc4c(c3)CCN(C3CCN(C)C3)C4=O)cc(C)c2n1 (stereo not shown) [Compound 282, 6-{2,8-dimethylimidazo[1,2-b]pyridazin-6-yl}-2-(1-methylpyrrolidin-3-yl)-3,4-dihydroisoquinolin-1-one]	> 10000	> 10000	1000 to 10000	> 10000	> 10000
Cc1cn2cc(-c3ccc4c(=O)n(C5CCNCC5)ncc4c3)cc(C(F)(F)F)c2n1 [Compound 262]	1000 to 10000	1000 to 10000	< 100	1000 to 10000	1000 to 10000
Cc1cn2nc(-c3ccc4nc(NC5CCNCC5)[nH]c(=O)c4c3)cc(C)c2n1 [Compound 192, 6-(2,8-dimethylimidazo[1,2-b]pyridazin-6-yl)-2-(piperidin-4-ylamino)quinazolin-4(3H)-one]	> 10000	> 10000	> 10000	> 10000	> 10000
CN1CCC(n2cnc3cc(-c4cc(F)c5nn(C)cc5c4)ccc3c2=O)CC1 [Compound 209, 7-(7-fluoro-2-methyl-2H-indazol-5-yl)-3-(1-methylpiperidin-4-yl)quinazolin-4(3H)-one]	1000 to 10000	1000 to 10000	< 100	1000 to 10000	100 to 1000
Cc1nc2c(F)cc(-c3ccc4c(=O)n(C5CCNCC5)ncc4c3)cc2s1 [Compound 253]	1000 to 10000	1000 to 10000	100 to 1000	1000 to 10000	1000 to 10000
Cc1cn2nc(-c3ccc4c(=O)n(C5CCN(C)CC5)cnc4c3)nc2c(C)n1 [Compound 288, 7-{6,8-dimethyl-[1,2,4]triazolo[1,5-a]pyrazin-2-yl}-3-(1-methylpiperidin-4-yl)quinazolin-4-one]	1000 to 10000	1000 to 10000	1000 to 10000	1000 to 10000	1000 to 10000
Cc1cn2cc(-c3ccc4c(c3)CCN(C3CCNCC3)C4=O)cc(F)c2n1 [Compound 247, 6-[8-fluoro-2-methylimidazo[1,2-a]pyridin-6-yl]-2-(piperidin-4-yl)-3,4-dihydroisoquinolin-1-one]	1000 to 10000	1000 to 10000	< 100	1000 to 10000	1000 to 10000
Cc1cn2nc(-c3ccc4c(c3)CCN([C@@H]3CCN[C@H](C)C3)C4=O)cc(C)c2n1 [Compound 281]	1000 to 10000	1000 to 10000	100 to 1000	1000 to 10000	1000 to 10000
CN1CCN(c2ccc3nc(-c4ccc5nn(C)cc5c4)[nH]c(=O)c3c2)CC1 [Compound 108, 2-(2-methyl-2H-indazol-5-yl)-6-(4-methylpiperazin-1-yl)quinazolin-4(3H)-one]	> 10000	1000 to 10000	1000 to 10000	> 10000	> 10000
Cc1cc(-c2ccc3nc(NC4CCN(C)CC4)[nH]c(=O)c3c2)cc2cn(C)nc12 [Compound 167]	> 10000	> 10000	> 10000	> 10000	> 10000

Second part, led by results:

IC50 (HTT CJ mRNA) [nM]	IC50 (Target C CJ mRNA) [nM]	IC50 (SMN2 CJ mRNA) [nM]	Structure (SMILES)	AC50 (HTT mRNA; [1]) [nM]	AC50 (HTT mRNA; [2]) [nM]
1000 to 10000	1000 to 10000	100 to 1000	Cc1cn2cc(-c3ccc4c(=O)n(C5CCN(C)CC5)cnc4c3)cc(F)c2n1 [Compound 207, 7-(8-fluoro-2-methylimidazo[1,2-a]pyridin-6-yl)-3-(1-methylpiperidin-4-yl)quinazolin-4(3H)-one]	1000 to 10000	1000 to 10000
100 to 1000	100 to 1000	< 100	Cn1cc2cc(-c3ccc4c(=O)n(C5CCNCC5)cnc4c3)cc(F)c2n1 [Compound 206, 7-(7-fluoro-2-methyl-2H-indazol-5-yl)-3-(piperidin-4-yl)quinazolin-4(3H)-one]	100 to 1000	100 to 1000
100 to 1000	1000 to 10000	< 100	Cc1nc2c(F)cc(-c3ccc4c(=O)n(C5CCN(C)CC5)cnc4c3)cc2o1 [Compound 300]	100 to 1000	1000 to 10000
100 to 1000	100 to 1000	< 100	Cc1cn2nc(-c3ccc4c(=O)n(C5CCNCC5)cnc4c3)nc2c(C)n1 [Compound 287, 7-{6,8-dimethyl-[1,2,4]triazolo[1,5-a]pyrazin-2-yl}-3-(piperidin-4-yl)quinazolin-4-one]	100 to 1000	100 to 1000
< 100	100 to 1000	< 100	Cc1cn2nc(-c3ccc4c(=O)n([C@@H]5CCN[C@H](C)C5)ncc4c3)cc(C)c2n1 [Compound 272]	< 100	100 to 1000
100 to 1000	100 to 1000	100 to 1000	Cc1cn2nc(-c3ccc4c(=O)n(C5CCNCC5)ncc4c3)nc2c(C)n1 [Compound 259]	100 to 1000	100 to 1000
100 to 1000	1000 to 10000	100 to 1000	Cc1cn2nc(-c3ccc4c(=O)n(C5CCNCC5)ncc4c3)cc2c(C)n1 [Compound 260]	100 to 1000	100 to 1000
< 100	100 to 1000	< 100	CCN1CCC(n2ncc3cc(-c4cc(C)c5nc(C)cn5n4)ccc3c2=O)CC1 [Compound 266]	< 100	< 100
100 to 1000	> 10000	< 100	Cc1cn2cc(-c3ccc4c(=O)n(C5CCNCC5)ncc4c3)cc(Cl)c2n1 [Compound 256]	100 to 1000	100 to 1000
< 100	< 100	< 100	Cc1cn2nc(-c3cc(F)c4c(=O)n(C5CCNCC5)cnc4c3)cc(C)c2n1 [Compound 243, 7-(2,8-dimethylimidazo[1,2-b]pyridazin-6-yl)-5-fluoro-3-(piperidin-4-yl)quinazolin-4(3H)-one]	< 100	< 100
100 to 1000	1000 to 10000	< 100	Cc1cn2nc(-c3ccc4c(=O)n([C@@H]5CCN(C)[C@H](C)C5)ncc4c3)cc(C)c2n1 [Compound 277]	100 to 1000	100 to 1000
